Measurements: patent US10172358B2, “Thiopicolinamide compounds with fungicidal activity” (Dow AgroSciences LLC, priority 2016, dated 2019)
Read-outs that look alike come from different tables or passages of the source.

Experiments:
[1] = test system: Zymoseptoria tritici; assay: Fungicidal activity: leaf blotch of wheat (SEPTTR), disease control on wheat seedlings; format: in vivo, Zymoseptoria tritici on wheat plants (variety Yuma); conditions: for pest or weed control at 100 ppm: high volume application; for pest or weed control at 121.5 g/ha: low volume application, 121.5 g/H
Protocol: Evaluation of Fungicidal Activity: Leaf Blotch of Wheat (Zymoseptoria Tritici; Bayer Code […]) Technical grades of materials were dissolved in acetone, which were then mixed with nine volumes of water (H2O) containing 110 ppm Triton X-100. The fungicide solutions were applied onto wheat seedlings using an automated booth sprayer to run-off. All sprayed plants were allowed to air dry prior to further handling. All fungicides were evaluated using the aforementioned method for their activity vs. all target diseases, unless stated otherwise. Wheat leaf blotch and brown rust activity were also evaluated using track spray applications, in which case the fungicides were formulated as EC formulations, containing 0.1% Trycol 5941 in the spray solutions. Wheat plants (variety Yuma) were grown from seed in a greenhouse in 50% mineral soil/50% soil-less Metro mix until the first leaf was fully emerged, with 7-10 seedlings per pot. These plants were inoculated with an aqueous spore suspension of Zymoseptoria tritici either prior to or after fungicide treatments. After inoculation the plants were kept in 100% relative humidity (one day in a dark dew chamber followed by two to three days in a lighted dew chamber at 20° C.) to permit spores to germinate and infect the leaf. The plants were then transferred to a greenhouse set at 20° C. for disease to develop. When disease symptoms were fully expressed on the 1st leaves of untreated plants, infection levels were assessed on a scale of 0 to 100 percent disease severity. Percent disease control was calculated using the ratio of disease severity on treated plants relative to untreated plants.

[2] = test system: Puccinia triticina; assay: Fungicidal activity: wheat brown rust (PUCCRT), disease control on wheat seedlings; format: in vivo, Puccinia triticina on wheat plants (variety Yuma); conditions: for pest or weed control at 100 ppm: high volume application; for pest or weed control at 121.5 g/ha: low volume application, 121.5 g/H
Protocol: Technical grades of materials were dissolved in acetone, which were then mixed with nine volumes of water (H2O) containing 110 ppm Triton X-100. The fungicide solutions were applied onto wheat seedlings using an automated booth sprayer to run-off. All sprayed plants were allowed to air dry prior to further handling. All fungicides were evaluated using the aforementioned method for their activity vs. all target diseases, unless stated otherwise. Wheat leaf blotch and brown rust activity were also evaluated using track spray applications, in which case the fungicides were formulated as EC formulations, containing 0.1% Trycol 5941 in the spray solutions. Evaluation of Fungicidal Activity: Wheat Brown Rust (Puccinia triticina; Synonym: Puccinia recondita f. Sp. Tritici; Bayer Code PUCCRT) Wheat plants (variety Yuma) were grown from seed in a greenhouse in 50% mineral soil/50% soil-less Metro mix until the first leaf was fully emerged, with 7-10 seedlings per pot. These plants were inoculated with an aqueous spore suspension of Puccinia triticina either prior to or after fungicide treatments. After inoculation the plants were kept in a dark dew room at 22° C. with 100% relative humidity overnight to permit spores to germinate and infect the leaf. The plants were then transferred to a greenhouse set at 24° C. for disease to develop. Fungicide formulation, application and disease assessment followed the procedures as described in the Example A. The results of the evalution are shown below in Table 4.

[3] = test system: Phakopsora pachyrhizi; assay: Fungicidal activity: Asian soybean rust (PHAKPA), disease control on soybean seedlings; format: in vivo
Protocol: Evaluation of Fungicidal Activity: Asian Soybean Rust (Phakopsora Pachyrhizi; Bayer Code PHAKPA)
Technical grades of materials were dissolved in acetone, which were then mixed with nine volumes of H2O containing 0.011% Tween 20. The fungicide solutions were applied onto soybean seedlings using an automated booth sprayer to run-off. All sprayed plants were allowed to air dry prior to further handling.
Soybean plants (variety Williams 82) were grown in soil-less Metro mix, with one plant per pot. Two weeks old seedlings were used for testing. Plants were inoculated either 3 days prior to or 1 day after fungicide treatments. Plants were incubated for 24 h in a dark dew room at 22° C. and 100% relative humidity then transferred to a growth room at 23° C. for disease to develop. Disease severity was assessed on the sprayed leaves.

[4] = 24 h, 1 day protectant, read-out: SEPTTR 1DP disease control, HV activity at 100 ppm
[5] = 72 h, 3 day curative, read-out: SEPTTR 3DC disease control, HV activity at 100 ppm
[6] = 24 h, 1 day protectant, read-out: PUCCRT 1DP disease control, HV activity at 100 ppm
[7] = 72 h, 3 day curative, read-out: PUCCRT 3DC disease control, HV activity at 100 ppm
[8] = 24 h, 1 day protectant, read-out: PHAKPA 1DP disease control at 25 ppm
[9] = 72 h, 3 day curative, read-out: PHAKPA 3DC disease control at 25 ppm
[10] = 24 h, 1 day protectant, read-out: SEPTTR 1DP disease control, LV activity at 121.5 g/H
[11] = 72 h, 3 day curative, read-out: SEPTTR 3DC disease control, LV activity at 121.5 g/H
[12] = 24 h, 1 day protectant, read-out: PUCCRT 1DP disease control, LV activity at 121.5 g/H
[13] = 72 h, 3 day curative, read-out: PUCCRT 3DC disease control, LV activity at 121.5 g/H

melting point	Structure (SMILES)	pest or weed control at 100 ppm [1, 4]	pest or weed control at 100 ppm [1, 5]	pest or weed control at 100 ppm [2, 6]	pest or weed control at 100 ppm [2, 7]	pest or weed control at 25 ppm [3, 8]	pest or weed control at 25 ppm [3, 9]	pest or weed control at 121.5 g/ha [1, 10]	pest or weed control at 121.5 g/ha [1, 11]	pest or weed control at 121.5 g/ha [2, 12]	pest or weed control at 121.5 g/ha [2, 13]
49 to 57 °C	COc1ccnc(C(=S)N[C@@H](C)C(=O)O[C@@H](C)[C@H](Oc2ccc(Cl)cc2)C2CCCC2)c1O [Compound 38]	> 80%	≤ 80%	> 80%	> 80%						
50 to 60 °C	COc1ccnc(C(=S)N[C@@H](C)C(=O)O[C@@H](C)[C@H](Oc2ccccc2)c2ccc(F)cc2Cl)c1O [Compound 30]	> 80%	> 80%	> 80%	≤ 80%						
54 to 70 °C	COc1cc(F)ccc1[C@@H](c1ccc(F)cc1)[C@H](C)OC(=O)[C@H](C)NC(=S)c1nccc(OC)c1O [Compound 24]	> 80%	> 80%	> 80%	≤ 80%						
57 to 68 °C	COc1ccnc(C(=S)N[C@@H](C)C(=O)O[C@@H](C)[C@@H](c2ccc(F)cc2)c2ccc(F)cc2C)c1O [Compound 31]	> 80%	> 80%	> 80%	≤ 80%						
	COc1ccnc(C(=S)N[C@@H](C)C(=O)O[C@H](C(C)C)[C@H](C)Oc2ccccc2)c1OC(C)=O [Compound 61]					> 80%	> 80%	≤ 80%	> 80%	> 80%	> 80%
60 to 72 °C	COc1cc(C)ccc1C(c1ccc(C)cc1OC)[C@H](C)OC(=O)[C@H](C)NC(=S)c1nccc(OC)c1O [Compound 29]	> 80%	> 80%	> 80%	> 80%						
	COc1ccnc(C(=S)N[C@@H](C)C(=O)O[C@@H](C(C)C)[C@@H](C)Oc2ccccc2)c1OC(C)=O [Compound 69]					≤ 80%			≤ 80%	≤ 80%	≤ 80%
152 to 159 °C	COc1ccnc(C(=S)N[C@@H](C)C(=O)O[C@@H](C)[C@@H](c2ccccc2)c2ccc(F)cc2C)c1O [Compound 26]	> 80%	> 80%	> 80%	≤ 80%						
45 to 57 °C	COc1ccnc(C(=S)N[C@@H](C)C(=O)O[C@@H](C)[C@H](Oc2ccccc2)c2ccc(F)cc2C)c1O [Compound 35]	> 80%	> 80%	> 80%	≤ 80%						
141 to 148 °C	COc1ccnc(C(=S)N[C@@H](C)C(=O)O[C@H](C(C)C)[C@H](C)Oc2ccc(F)cc2)c1O [Compound 36]	> 80%	≤ 80%	> 80%	> 80%						
46 to 63 °C	COc1ccnc(C(=S)N[C@@H](C)C(=O)O[C@@H](C(C)C)[C@@H](C)Oc2ccccc2)c1O [Compound 27]		≤ 80%	≤ 80%							
132 to 141 °C	COc1ccnc(C(=S)N[C@@H](C)C(=O)O[C@@H](C)[C@H](Oc2cccc(F)c2)C(C)C)c1O [Compound 33]	> 80%	≤ 80%	> 80%	> 80%						
53 to 64 °C	COc1ccnc(C(=S)N[C@H](C)C(=O)O[C@H](C)C(c2ccc(F)cc2)c2ccc(F)cc2)c1O [Compound 28]										
50 to 61 °C	COc1ccnc(C(=S)N[C@@H](C)C(=O)O[C@@H](C)C(c2ccc(F)cc2F)c2ccc(F)cc2F)c1O [Compound 32]	≤ 80%	> 80%	≤ 80%	≤ 80%						
	COc1ccnc(C(=S)N[C@@H](C)C(=O)O[C@H](C(C)C)[C@H](C)Oc2ccc(F)cc2)c1OC(C)=O [Compound 73]					> 80%	> 80%	> 80%	> 80%	> 80%	> 80%
125 to 133 °C	CCC[C@@H](Oc1ccc(C)cc1)[C@H](C)OC(=O)[C@H](C)NC(=S)c1nccc(OC)c1O [Compound 37]	≤ 80%		> 80%	> 80%						
	COc1ccnc(C(=S)N[C@@H](C)C(=O)O[C@@H](C)C(c2ccc(F)cc2)c2ccc(F)cc2)c1OC(C)=O [Compound 78]					≤ 80%		> 80%	> 80%	> 80%	≤ 80%
	COc1cc(F)ccc1C(c1ccc(F)cc1OC)[C@H](C)OC(=O)[C@H](C)NC(=S)c1nccc(OC)c1OC(C)=O [Compound 67]					> 80%	≤ 80%	> 80%	> 80%	> 80%	≤ 80%
	COc1ccnc(C(=S)N[C@H](C)C(=O)O[C@H](C)C(c2ccc(F)cc2)c2ccc(F)cc2)c1OC(C)=O [Compound 68]					≤ 80%		≤ 80%			≤ 80%
	COc1ccnc(C(=S)N[C@@H](C)C(=O)O[C@@H](C)[C@H](Oc2cccc(F)c2)C(C)C)c1OC(C)=O [Compound 77]					> 80%	≤ 80%	≤ 80%	> 80%	> 80%	> 80%
	COc1ccnc(C(=S)N[C@@H](C)C(=O)O[C@@H](C)[C@H](Oc2ccccc2)c2ccc(F)cc2Cl)c1OC(C)=O [Compound 75]					≤ 80%	≤ 80%	> 80%	> 80%	> 80%	≤ 80%
80 to 86 °C	CC[C@H](OC(=O)[C@H](C)NC(=S)c1nccc(OC)c1O)[C@@H](C)Oc1ccccc1 [Compound 25]			≤ 80%							
	COc1cc(C)ccc1C(c1ccc(C)cc1OC)[C@H](C)OC(=O)[C@H](C)NC(=S)c1nccc(OC)c1OC(C)=O [Compound 65]					> 80%	≤ 80%	> 80%	> 80%	> 80%	> 80%
